Data taken from publication PMC4715021, “^177Lu-labelled macrocyclic bisphosphonates for targeting bone metastasis in cancer treatment” (EJNMMI Research, 2016).
Where “and” joins values, the source holds several entries; their conditions need not be identical. Equal values may be shown once.

Experiments:
[1] = Ex vivo biodistribution of 177Lu-complexes in Wistar rats; conditions: for Biodistribution of radioactivity, Adipose tissue / Biodistribution of radioactivity, Adrenal gland / Biodistribution of radioactivity, Blood / Biodistribution of radioactivity, Brain / Biodistribution of radioactivity, Femur / Biodistribution of radioactivity, Harderian gland / Biodistribution of radioactivity, Heart / Biodistribution of radioactivity, Kidneys / Biodistribution of radioactivity, Liver / Biodistribution of radioactivity, Lung / Biodistribution of radioactivity, Muscle / Biodistribution of radioactivity, Pancreas / Biodistribution of radioactivity, Spleen / Biodistribution of radioactivity, Testes / Biodistribution of radioactivity, Thymus: i.v.
Excerpt: (§1) The experiments were realized corresponding to the German animal welfare regulations and institutional guidelines and with the permission of the local animal research committee at the Landesdirektion, Dresden. All experimental procedures are following the guidelines of the European Convention for the Protection of Vertebrate Animals used for Experimental and other Scientific Purposes (ETS No. 123). Male Wistar rats weighing 157.69 ± 17.10 g (mean ± SD, N = 35) were purchased from Unilever (HsdCpb:WU, Harlan Winkelmann, Borchen, Germany). Anesthetization was initiated and maintained by desflurane, and animals were put in the supine position and placed on a heating pad to maintain body temperature. A needle catheter was used for administration of the tracers in the tail vein. A second catheter was introduced into the right femoral artery for the extraction of blood samples for metabolite analysis, which was routinely done during SPECT/CT measurements.
The male Wistar rats received a short-term anesthetization by desflurane inhalation. Mean activities of 2.36 ± 0.27 MBq/kg of the ^177Lu-labelled tracers in isotonic saline were injected in a volume of 0.5 mL in the tail vein, with the following specific details: [^177Lu]citrate: 2.56 ± 0.07 MBq/kg, 128.58 body weight (BW, g), n = 4 (g); [^177Lu]BPAMD: 2.33 ± 0.11 MBq/kg, 159.41 BW (g), n = 4 (g); [^177Lu]BPAPD: 2.58 ± 0.24 MBq/kg, 156.38 BW (g), n = 4 (g); [^177Lu]BPPED: 2.27 ± 0.25 MBq/kg, 153.43 BW (g), n = 4 (g); [^177Lu]NO2AP^BP: 2.52 ± 0.25 MBq/kg, 173.82 BW (g), n = 4 (g); [^177Lu]DOTA(M^BP)2: 1.80 ± 0.10 MBq/kg, 181.64 BW (g), n = 4 (g); [^177Lu]DO2A(P^BP)2: 2.46 ± 0.15 MBq/kg, 150.60 BW (g), n = 4 (g). The compounds [^177Lu]DOTA(M^BP)2, [^177Lu]BPPED, and [^177Lu]BPAMD were further chosen for a biodistribution study after 8 days p.i. A mean activity of 19.0 ± 2.5 MBq/kg was injected. Animals were sacrificed after 5 min, 60 min, and 8 days p.i. Organs of interest were excised rapidly and weighed, and the ^177Lu activity was determined with a Wallac WIZARD automatic gamma counter (PerkinElmer, Germany) and decay corrected. The distribution data are expressed in %ID or are normalized to the BW as standard uptake value (SUV), which was calculated with the formula: SUV = (activity per g tissue)/(injected activity) × BW. The skeleton weight was calculated using the following: skeleton weight = 9.66 + 0.0355 × BW, and the total activities associated with the skeleton were calculated by using the activity concentration in the femur and the total skeleton weight.

[2] = Metabolite analysis and in vivo stability, arterial blood and urine samples; set-up: species or system Wistar rats
Excerpt: as §1
Arterial blood plasma samples were taken during SPECT/CT examinations after 1, 3, 5, 10, 20, 30, 60, and 120 min. p.i., and the in vivo metabolism of [^177Lu]BPAMD, [^177Lu]BPAPD, [^177Lu]BPPED, [^177Lu]NO2AP^BP, [^177Lu]DOTA(M^BP)2, and [^177Lu]DO2A(P^BP)2 was analyzed. Plasma was separated by centrifugation (3 min, 11,000×g) followed by precipitation of the plasma proteins with ice-cold methanol (1.5 parts per 1 part plasma) and centrifugation (3 min, 11,000×g). The supernatants were analyzed by radio-TLC and HPLC using the abovementioned methods for quality control. Additionally, urine samples were treated in the same way prior radio-TLC and radio-HPLC analysis.

[3] = 5 min p.i., mean of four animals
[4] = 60 min p.i., mean of four animals
[5] = 8 days p.i., mean for five animals

O=C(O)CN1CCN(CC(=O)O)CCN(CC(=O)NC(P(=O)(O)O)P(=O)(O)O)CCN(CC(=O)O)CC1 [[^177Lu]BPAMD, metal not drawn]
Ratio Bone/Adipose tissue ([1]; 5 min p.i.): 8.0 | Ratio Bone/Adrenal gland ([1]; 5 min p.i.): 8.4 | Ratio Bone/Blood ([1]; 5 min p.i.): 3.7 | Ratio Bone/Brain ([1]; 5 min p.i.): 83.9 | Ratio Bone/Harderian gland ([1]; 5 min p.i.): 9.3 | Ratio Bone/Heart ([1]; 5 min p.i.): 9.3 | Ratio Bone/Kidneys ([1]; 5 min p.i.): 0.7 | Ratio Bone/Liver ([1]; 5 min p.i.): 12.9 | Ratio Bone/Lung ([1]; 5 min p.i.): 5.5 | Ratio Bone/Muscle ([1]; 5 min p.i.): 17.7 | Ratio Bone/Pancreas ([1]; 5 min p.i.): 10.8 | Ratio Bone/Spleen ([1]; 5 min p.i.): 9.1 | Ratio Bone/Testes ([1]; 5 min p.i.): 13.4 | Ratio Bone/Thymus ([1]; 5 min p.i.): 11.6 | Biodistribution of radioactivity, Adipose tissue [1, 3]: 0.42 SUV | Biodistribution of radioactivity, Adrenal gland [1, 3]: 0.40 SUV | Biodistribution of radioactivity, Blood [1, 3]: 0.90 SUV | Biodistribution of radioactivity, Brain [1, 3]: 0.04 SUV | Biodistribution of radioactivity, Femur [1, 3]: 3.36 SUV | Biodistribution of radioactivity, Harderian gland [1, 3]: 0.36 SUV | Biodistribution of radioactivity, Heart [1, 3]: 0.36 SUV | Biodistribution of radioactivity, Kidneys [1, 3]: 4.53 SUV | Biodistribution of radioactivity, Liver [1, 3]: 0.26 SUV | Biodistribution of radioactivity, Lung [1, 3]: 0.61 SUV | Biodistribution of radioactivity, Muscle [1, 3]: 0.19 SUV | Biodistribution of radioactivity, Pancreas [1, 3]: 0.31 SUV | Biodistribution of radioactivity, Spleen [1, 3]: 0.37 SUV | Biodistribution of radioactivity, Testes [1, 3]: 0.25 SUV | Biodistribution of radioactivity, Thymus [1, 3]: 0.29 SUV | Ratio Bone/Adipose tissue ([1]; 60 min p.i.): 134.5 | Ratio Bone/Adrenal gland ([1]; 60 min p.i.): 109.6 | Ratio Bone/Blood ([1]; 60 min p.i.): 135.6 | Ratio Bone/Brain ([1]; 60 min p.i.): 613.4 | Ratio Bone/Harderian gland ([1]; 60 min p.i.): 118.8 | Ratio Bone/Heart ([1]; 60 min p.i.): 210.1 | Ratio Bone/Kidneys ([1]; 60 min p.i.): 14.0 | Ratio Bone/Liver ([1]; 60 min p.i.): 127.5 | Ratio Bone/Lung ([1]; 60 min p.i.): 69.1 | Ratio Bone/Muscle ([1]; 60 min p.i.): 251.7 | Ratio Bone/Pancreas ([1]; 60 min p.i.): 136.4 | Ratio Bone/Spleen ([1]; 60 min p.i.): 68.2 | Ratio Bone/Testes ([1]; 60 min p.i.): 179.1 | Ratio Bone/Thymus ([1]; 60 min p.i.): 58.6 | Biodistribution of radioactivity, Adipose tissue [1, 4]: 0.04 SUV | Biodistribution of radioactivity, Adrenal gland [1, 4]: 0.04 SUV | Biodistribution of radioactivity, Blood [1, 4]: 0.04 ± 0.01 SUV and 0.04 SUV | Biodistribution of radioactivity, Brain [1, 4]: 0.01 SUV | Biodistribution of radioactivity, Femur [1, 4]: 4.84 ± 0.44 SUV and 4.84 SUV | Biodistribution of radioactivity, Harderian gland [1, 4]: 0.04 SUV | Biodistribution of radioactivity, Heart [1, 4]: 0.02 SUV | Biodistribution of radioactivity, Kidneys [1, 4]: 0.35 SUV | Biodistribution of radioactivity, Liver [1, 4]: 0.04 SUV | Biodistribution of radioactivity, Lung [1, 4]: 0.07 SUV | Biodistribution of radioactivity, Muscle [1, 4]: 0.02 SUV | Biodistribution of radioactivity, Pancreas [1, 4]: 0.04 SUV | Biodistribution of radioactivity, Spleen [1, 4]: 0.07 SUV | Biodistribution of radioactivity, Testes [1, 4]: 0.03 SUV | Biodistribution of radioactivity, Thymus [1, 4]: 0.08 SUV | Ratio Bone/Adipose tissue ([1]; 8 days p.i.): 1158 | Ratio Bone/Adrenal gland ([1]; 8 days p.i.): 547 | Ratio Bone/Blood ([1]; 8 days p.i.): 6703 | Ratio Bone/Brain ([1]; 8 days p.i.): 1405 | Ratio Bone/Harderian gland ([1]; 8 days p.i.): 48 | Ratio Bone/Heart ([1]; 8 days p.i.): 885 | Ratio Bone/Kidneys ([1]; 8 days p.i.): 66 | Ratio Bone/Liver ([1]; 8 days p.i.): 203 | Ratio Bone/Lung ([1]; 8 days p.i.): 634 | Ratio Bone/Muscle ([1]; 8 days p.i.): 37 | Ratio Bone/Pancreas ([1]; 8 days p.i.): 851 | Ratio Bone/Spleen ([1]; 8 days p.i.): 257 | Ratio Bone/Testes ([1]; 8 days p.i.): 1136 | Ratio Bone/Thymus ([1]; 8 days p.i.): 787 | Biodistribution of radioactivity, Adipose tissue [1, 5]: 0.004 SUV | Biodistribution of radioactivity, Adrenal gland [1, 5]: 0.009 SUV | Biodistribution of radioactivity, Blood [1, 5]: 0.001 SUV | Biodistribution of radioactivity, Brain [1, 5]: 0.004 SUV | Biodistribution of radioactivity, Femur [1, 5]: 5.039 SUV | Biodistribution of radioactivity, Harderian gland [1, 5]: 0.105 SUV | Biodistribution of radioactivity, Heart [1, 5]: 0.006 SUV | Biodistribution of radioactivity, Kidneys [1, 5]: 0.076 SUV | Biodistribution of radioactivity, Liver [1, 5]: 0.025 SUV | Biodistribution of radioactivity, Lung [1, 5]: 0.008 SUV | Biodistribution of radioactivity, Muscle [1, 5]: 0.136 SUV | Biodistribution of radioactivity, Pancreas [1, 5]: 0.006 SUV | Biodistribution of radioactivity, Spleen [1, 5]: 0.020 SUV | Biodistribution of radioactivity, Testes [1, 5]: 0.004 SUV | Biodistribution of radioactivity, Thymus [1, 5]: 0.006 SUV | Total skeletal retention ([1]; 8 days p.i., calculated from femur activity concentration and total skeleton weight): constant over 8 days | Total skeleton retention ([1]; after 60 min, calculated from femur activity concentration and total skeleton weight): 46.7 ± 5.3 %ID | Blood half-life of the slow component (t1/2(β)) ([2]; arterial blood, single intravenous injection): 23.3 min | Metabolization in blood samples (radio-HPLC and TLC) ([2]; within a period of 120 min): no evidence of any metabolization
